Publication PMC6081956 (ChemMedChem, 2018)
“Also recorded” adds a separate entry of the source. Read-outs that look alike come from different tables or passages of the source.

Experiments:
[1] = 129 patients receiving 600 mg of EFV per day, cited from earlier work
CYP3A4 mRNA = type: cell-based; details: 10 µM 8-OHEFV co-incubated with 2 µM RIF, 48 h, primary human hepatocytes, p=0.004
PXR-LBD-SRC1p [2] = molecular target: T1, PXR-LBD-SRC1p (Homo sapiens, UniProt O75469); assay: Isothermal titration calorimetry; type: binding; details: for N value (stoichiometry, single-site binding model) / -TΔS° / ΔH° / ΔG°: direct ITC; for -TΔS° / ΔH°: 25°C; for ΔG°: from KD by ΔG° = -RTlnKD
T1 sequence (O75469 with tags, fused parts or gaps): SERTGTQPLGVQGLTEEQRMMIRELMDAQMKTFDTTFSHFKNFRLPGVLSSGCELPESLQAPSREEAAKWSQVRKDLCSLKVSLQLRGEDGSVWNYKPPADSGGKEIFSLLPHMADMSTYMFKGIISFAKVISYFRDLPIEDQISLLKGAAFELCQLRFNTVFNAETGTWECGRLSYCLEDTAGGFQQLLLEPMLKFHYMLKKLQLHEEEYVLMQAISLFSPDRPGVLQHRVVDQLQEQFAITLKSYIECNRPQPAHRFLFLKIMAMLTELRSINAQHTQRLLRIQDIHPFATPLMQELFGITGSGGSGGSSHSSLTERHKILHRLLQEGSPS

[3] = tested on: PXR target gene Cyp3a11 mRNA; assay: Cyp3a11 mRNA expression; type: cell-based; details: PXR-humanized mouse hepatocytes, 10 µM, 72 h, normalized to GAPDH
[4] = tested on: PXR target gene Cyp3a11 mRNA; assay: Cyp3a11 mRNA expression; type: cell-based; details: PXR-null mouse hepatocytes, 10 µM, 72 h
PXR-LBD-SRC1p [5] = molecular target: T1, PXR-LBD-SRC1p; assay: Competitive isothermal titration calorimetry; type: binding; details: for ΔG°: from KD of competitive ITC
PXR-LBD = molecular target: T2, PXR-LBD (Homo sapiens, UniProt O75469); assay: biochemical
T2 sequence (O75469 111-434): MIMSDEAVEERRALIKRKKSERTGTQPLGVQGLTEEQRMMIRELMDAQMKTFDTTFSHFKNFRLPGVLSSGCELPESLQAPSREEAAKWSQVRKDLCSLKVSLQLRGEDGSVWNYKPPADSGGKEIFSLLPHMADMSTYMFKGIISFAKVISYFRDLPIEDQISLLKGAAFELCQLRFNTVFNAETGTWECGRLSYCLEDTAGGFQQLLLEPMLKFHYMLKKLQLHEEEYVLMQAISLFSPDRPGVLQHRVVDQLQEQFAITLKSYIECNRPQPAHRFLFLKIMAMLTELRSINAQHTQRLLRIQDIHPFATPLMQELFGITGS

O=C1Nc2c(O)cc(Cl)cc2[C@@](C#CC2CC2)(C(F)(F)F)O1 [8-OHEFV, (S)-6-chloro-4-(cyclopropylethynyl)-8-hydroxy-4-(trifluoromethyl)-1,4-dihydro-2H-benzo[d][1,3]oxazin-2-one]
plasma concentration ([1]; at 4 weeks ref 7): 6.51 ± 0.87 µM
plasma concentration ([1]; at 16 weeks ref 7): 6.84 ± 1.06 µM
decrease in CYP3A4 mRNA induction as compared to 2 µM RIF alone (CYP3A4 mRNA): ~20%
Kd (PXR-LBD-SRC1p [2]): 7.9 ± 7.7 µM
N value (stoichiometry, single-site binding model) (PXR-LBD-SRC1p [2]): approximately 1.0
-TΔS° (PXR-LBD-SRC1p [2]): −3.8 ± 1.5 kcal/mol•K
ΔH° (PXR-LBD-SRC1p [2]): -3.1 ± 1.2 kcal/mol
ΔG° (PXR-LBD-SRC1p [2]): -6.9 ± 0.3 kcal/mol
Cyp3a11 mRNA levels, fold change from DMSO control [3]: did not result in modulation of Cyp3a11 mRNA levels; also recorded: did not result in a change in Cyp3a11 mRNA levels

O=C1Nc2ccc(Cl)cc2[C@@](C#CC2CC2)(C(F)(F)F)O1 [EFV, (S)-6-chloro-4-(cyclopropylethynyl)-4-(trifluoromethyl)-1,4-dihydro-2H-benzo[d][1,3]oxazin-2-one, reference compound]
Cyp3a11 mRNA abundance [4]: no impact on Cyp3a11 mRNA abundance
plasma concentration ([1]; at 4 weeks ref 7): 10.61 ± 1.11 µM
plasma concentration ([1]; at 16 weeks ref 7): 10.33 ± 0.98 µM
N value (stoichiometry, single-site binding model) (PXR-LBD-SRC1p [2]): approximately 1.0
-TΔS° (PXR-LBD-SRC1p [2]): −4.9 ±0.4 kcal/mol•K
ΔH° (PXR-LBD-SRC1p [2]): -2.1 ± 0.3 kcal/mol
ΔG° (PXR-LBD-SRC1p [2]): -6.9 ± 0.2 kcal/mol

CCCC#CC1(C(F)(F)F)OC(=O)Nc2ccc(Cl)cc21 (stereo not shown) [analog 4, 6-chloro-4-(pent-1-yn-1-yl)-4-(trifluoromethyl)-1,4-dihydro-2H-benzo[d][1,3]oxazin-2-one]
Kd (PXR-LBD-SRC1p [2]): 78.7 ± 15.3 µM
-TΔS° (PXR-LBD-SRC1p [2]): −4.5 ±0.2 kcal/mol•K
ΔH° (PXR-LBD-SRC1p [2]): -1.1 ± 0.1 kcal/mol
ΔG° (PXR-LBD-SRC1p [2]): -5.6 ± 0.1 kcal/mol

COc1ccc(CNc2ccc(Cl)cc2[C@](O)(C#CC2CC2)C(F)(F)F)cc1 [analog 5, (R)-2-(5-chloro-2-((4-methoxybenzyl)amino)phenyl)-4-cyclopropyl-1,1,1-trifluorobut-3-yn-2-ol]
Kd (PXR-LBD-SRC1p [5]): 14.5 ± 4.3 µM
ΔG° (PXR-LBD-SRC1p [5]): -6.6 ± 0.1 kcal/mol

COc1ccc(CNc2ccc(Cl)cc2[C@@](O)(C#CC2CC2)C(F)(F)F)cc1 [analog 6, (S)-2-(5-chloro-2-((4-methoxybenzyl)amino)phenyl)-4-cyclopropyl-1,1,1-trifluorobut-3-yn-2-ol]
Kd (PXR-LBD-SRC1p [5]): 9.5 ± 2.7 µM
ΔG° (PXR-LBD-SRC1p [5]): -6.8 ± 0.2 kcal/mol

COc1ccc(C(=O)Nc2ccc(Cl)cc2C(O)(C#CC2CC2)C(F)(F)F)cc1 (stereo not shown) [analog 7, N-(4-chloro-2-(4-cyclopropyl-1,1,1-trifluoro-2-hydroxybut-3-yn-2-yl)phenyl)-4-methoxybenzamide]
Kd (PXR-LBD-SRC1p [5]): 4.2 ± 1.1 µM
ΔG° (PXR-LBD-SRC1p [5]): -7.3 ± 0.2 kcal/mol
Cyp3a11 mRNA levels, fold change from DMSO control [3]: 37 fold

FC(F)(F)[C@@]1(C#CC2CC2)OCNc2ccc(Cl)cc21 [analog 8, (S)-6-chloro-4-(cyclopropylethynyl)-4-(trifluoromethyl)-1,4-dihydro-2H-benzo[d][1,3]oxazine]
Kd (PXR-LBD-SRC1p [2]): 14.9 ± 2.6 µM
-TΔS° (PXR-LBD-SRC1p [2]): −4.8 ±0.3 kcal/mol•K
ΔH° (PXR-LBD-SRC1p [2]): -1.8 ± 0.1 kcal/mol
ΔG° (PXR-LBD-SRC1p [2]): -6.6 ± 0.1 kcal/mol

COc1ccc(C2Nc3ccc(Cl)cc3[C@@](C#CC3CC3)(C(F)(F)F)O2)cc1 (stereo partly drawn) [analog 9, (S)-6-chloro-4-(cyclopropylethynyl)-2-(4-methoxyphenyl)-4-(trifluoromethyl)-1,4-dihydro-2H-benzo[d][1,3]oxazine]
IC50 (PXR-LBD): 39.3 ± 24.1 µM

Nc1ccc(Cl)cc1C(=O)C(F)(F)F [analog 10, 1-(2-amino-5-chlorophenyl)-2,2,2-trifluoroethan-1-one]
Kd (PXR-LBD-SRC1p [5]): > 400 µM
Cyp3a11 mRNA levels, fold change from DMSO control [3]: no change in the Cyp3a11 mRNA levels

O=C1Oc2ccc(Cl)cc2C(C#CC2CC2)(C(F)(F)F)O1 (stereo not shown) [analog 15, 6-chloro-4-(cyclopropylethynyl)-4-(trifluoromethyl)-4H-benzo[d][1,3]dioxin-2-one]
Kd (PXR-LBD-SRC1p [2]): 10.9 ± 1.8 µM
-TΔS° (PXR-LBD-SRC1p [2]): −5.1 ±0.2 kcal/mol•K
ΔH° (PXR-LBD-SRC1p [2]): -1.6 ± 0.2 kcal/mol
ΔG° (PXR-LBD-SRC1p [2]): -6.8 ± 0.1 kcal/mol

O=C1Cc2ccc(Cl)cc2C(C#CC2CC2)(C(F)(F)F)O1 (stereo not shown) [analog 16, 7-chloro-1-(cyclopropylethynyl)-1-(trifluoromethyl)isochroman-3-one]
Kd (PXR-LBD-SRC1p [5]): 10.5 ± 1.5 µM
ΔG° (PXR-LBD-SRC1p [5]): -6.8 ± 0.2 kcal/mol
